The values that follow come from US20250145561A1, “4-SUBSTITUTED-PHENYL ACETAMIDES AND ARYLUREAS AS AGONISTS FOR THE ORPHAN RECEPTOR GPR88” (RESEARCH TRIANGLE INSTITUTE, priority 2022, published 2025).

Test [1] addresses T1, GPR88 (Homo sapiens, UniProt Q9GZN0).
T1 construct: expressed in transfected cells
The test is described as follows: Lance Ultra TR-FRET cAMP assay using stable PPLS-HA-GPR88 CHO cells. Type of test: cell-based. As to conditions: for Emax: CHO; for EC50: stable PPLS-HA-GPR88 CHO cells, value in parentheses beside pEC50. The method, then:
The compounds of the present disclosure offer potent agonism to the orphan receptor GPR88. As such, the compounds of the present disclosure provide therapeutic potential for the treatment of striatal associated disorders such as Parkinson's disease, schizophrenia, and alcohol addiction. All compounds were evaluated for the GPR88 agonist activity in the inventors' previously established in vitro GPR88 Lance TR-FRET cAMP assay. See, supra, Jin et al., 2018, Rahman et al., 2020, and Rahman et al., 2021. As will be described, the TR-FRET signal was converted to fmol cAMP by interpolating from the standard cAMP curve. Fmol cAMP was plotted against the log of compound concentration and data were fit to a three-parameter logistic curve to generate maximum response (Emax) and EC50 values.
Lance™ Ultra cAMP assay using stable PPLS-HA-GPR88 CHO cells. All cAMP assays were performed using the inventors' previously published methods. […] ACS Chemical Neuroscience 2016, 7, 1418-1432, which is incorporated by reference herein with regard to such teaching. Stimulation buffer containing 1× Hank's Balanced Salt Solution (HBSS), 5 mM HEPES, 0.1% BSA stabilizer, and 0.5 mM final IBMX was prepared and titrated to pH 7.4 at room temperature. Serial dilutions of the test compounds (5 μL) and 300 nM forskolin (5 μL), both prepared at 4× the desired final concentration in 2% DMSO/stimulation buffer, were added to a 96-well white ½ area microplate (PerkinElmer). A cAMP standard curve was prepared at 4× the desired final concentration in stimulation buffer and 5 μL was added to the assay plate. Stable PPLS-HA-GPR88 CHO cells were lifted with versene and spun at 270 g for 10 minutes. The cell pellet was resuspended in stimulation buffer and 4,000 cells (10 μL) were added to each well except wells containing the cAMP standard curve. After incubating for 30 min at room temperature, Eu-cAMP tracer and uLIGHT-anti-cAMPworking solutions were added per the manufacturer's instructions. After incubation at room temperature for 1 hour, the TR-FRET signal (ex 337 nm) was read on a CLARIOstar multimode plate reader (BMG Biotech, Cary, NC).
Data Analysis. The TR-FRET signal (665 nm) was converted to fmol cAMP by interpolating from the standard cAMP curve. Fmol cAMP was plotted against the log of compound concentration and data were fit to a three-parameter logistic curve to generate EC50 values (Prism, version 6.0, GraphPad Software, Inc., San Diego, CA).
(In general: TR-FRET usually uses a lanthanide donor and a delayed reading to cut background.)

For test [2] the following is noted: rats, intraperitoneally; cited from earlier work.
The conditions of test [3]: rats, intraperitoneally, dose-dependent; cited from earlier work.

T1 sequence (Q9GZN0 whole entry): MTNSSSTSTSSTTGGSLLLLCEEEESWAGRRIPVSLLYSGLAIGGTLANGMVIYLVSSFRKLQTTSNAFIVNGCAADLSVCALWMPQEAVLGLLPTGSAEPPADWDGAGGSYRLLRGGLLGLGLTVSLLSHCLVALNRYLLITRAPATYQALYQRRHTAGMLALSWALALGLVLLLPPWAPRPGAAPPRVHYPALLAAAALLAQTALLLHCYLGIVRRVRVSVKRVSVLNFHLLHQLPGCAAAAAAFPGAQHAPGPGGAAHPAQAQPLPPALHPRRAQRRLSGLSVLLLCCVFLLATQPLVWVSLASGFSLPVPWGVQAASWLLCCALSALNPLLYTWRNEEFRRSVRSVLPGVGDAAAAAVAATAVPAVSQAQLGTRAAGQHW

The term Emax denotes the size of the effect at its maximum, as opposed to the concentration needed. Usually EC50 stands for the concentration needed to bring the measured effect to its halfway point. Turning to `CO[C@H](C)[C@H](N)CN(C(=O)N[C@@H](C)c1ccccc1)c1ccc(-c2ccc(C)cc2)cc1` [Compound 55, 3-[(2R,3R)-2-Amino-3-methoxybutyl]-1-[(1 S)-1-phenylethyl]-3-{4′-methyl-[1,1′-biphenyl]-4-yl}urea], in test [1], the maximum response (Emax) came to 114 ± 6% and the half-maximal effective concentration (EC50) is 457 nM.
For `CCc1ccc(-c2ccc(N(C[C@@H](N)[C@@H](C)OC)C(=O)N[C@@H](C)c3ccccc3)cc2)cc1` [Compound 56, 3-[(2R,3R)-2-Amino-3-methoxybutyl]-1-[(1 S)-1-phenylethyl]-3-{4′-ethyl-[1,1′-biphenyl]-4-yl}urea], in test [1], the Emax was determined as 116 ± 9% and the EC50 was 331 nM.
For the compound `COc1ccc(-c2ccc(N(C[C@@H](N)[C@@H](C)OC)C(=O)N[C@@H](C)c3ccccc3)cc2)cc1` [Compound 57, 3-[(2R,3R)-2-Amino-3-methoxybutyl]-1-[(1 S)-1-phenylethyl]-3-{4′-methoxy-[1,1′-biphenyl]-4-yl}urea], in test [1], the Emax was 101 ± 3% and the concentration for a half-maximal effect (EC50) is 891 nM.
For `CCOc1ccc(-c2ccc(N(C[C@@H](N)[C@@H](C)OC)C(=O)N[C@@H](C)c3ccccc3)cc2)cc1` [Compound 58, 3-[(2R,3R)-2-Amino-3-methoxybutyl]-1-[(1 S)-1-phenylethyl]-3-{4′-ethoxy-[1,1′-biphenyl]-4-yl}urea], in test [1], the maximum response (Emax) came out at 102 ± 2% and the half-maximal effective concentration (EC50) is 676 nM.
For `CO[C@H](C)[C@H](N)CN(C(=O)N[C@@H](C)c1ccccc1)c1ccc(-c2ccc(OC(C)C)cc2)cc1` [Compound 59, 3-[(2R,3R)-2-Amino-3-methoxybutyl]-1-[(1 S)-1-phenylethyl]-3-[4′-(propan-2-yloxy)-[1,1′-biphenyl]-4-yl]urea], in test [1], the maximal response (Emax) was 100 ± 4% and the EC50 was 407 nM.
For `CO[C@H](C)[C@H](N)CN(C(=O)N[C@@H](C)c1ccccc1)c1ccc(C#CCC(C)C)cc1` [Compound 60, 3-[(2R,3R)-2-amino-3-methoxybutyl]-3-[4-(4-methylpent-1-yn-1-yl)phenyl]-1-[(1 S)-1-phenylethyl]urea], in test [1], the maximal response (Emax) was 103 ± 4% and the EC50 was 363 nM.
Regarding `COCc1ccc(-c2ccc(N(C[C@@H](N)[C@@H](C)OC)C(=O)[C@@H]3C[C@H]3c3ccccn3)cc2)cc1` [RTI-13951-33], in test [2], the sucrose self-administration entry is “without effects”. For the same compound, in test [3], the alcohol intake result was “significantly reduced” and the alcohol self-administration entry is on record as “significantly reduced”.
